In the assay the test system is SRB-2 (RNA, aptamer) GGAACCUCGCUUCGGCGAUGAUGGAGAGGCGCAAGGUUAACCGCCUCAGGUUCC
Nature of the assay: fluorescence titration. The settings on record: 125 mM KCl, 5 mM MgCl2, 20 mM Hepes pH 7.4, 25 °C, RNA titrated.

For `CCN(CC)c1ccc2cc3ccc(=[N+](CC)CC)cc-3oc2c1`, the Kd (10 nM probe) came out at 0.251 ± 0.05 µM.

In turn, `CN(C)c1ccc2cc3ccc(N(C)C)cc3[o+]c2c1` had a Kd (10 nM probe) of 0.059 ± 0.009 µM.

With `CCN(CC)c1ccc2nc3ccc(N(CC)CC)cc3[o+]c2c1`, for the setting “50 nM probe”, the equilibrium dissociation constant (Kd) turned out to be 0.26 ± 0.021 µM.

`CN(C)c1ccc2cc3ccc(N(C)C)cc3nc2c1` displayed a Kd (10 nM probe) of 0.088 ± 0.008 µM.

As for `Nc1c2ccccc2nc2ccccc12`, the dissociation constant (Kd) (50 nM probe) came out at 2.96 ± 0.24 µM.

The record behind these values is article PMC6182184 (2018).
